# Data as given in PubChem BioAssay (NCI).
#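 Cultured in 96-well plates, cells were exposed to test compound for 48 hours across five concentrations. The concentration for 50% growth inhibition is given as GI50. At the TGI there is no net growth.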
# How the values were obtained:
# Test in all cases: NCI-60 cell line screen, 48 h
# HCT-15 colon = tested on: HCT-15 colon
# COLO 205 colon = tested on: COLO 205 colon
# IGROV1 ovarian = tested on: IGROV1 ovarian
# T-47D breast = tested on: T-47D breast
# OVCAR-8 ovarian = tested on: OVCAR-8 ovarian
# SN12C renal = tested on: SN12C renal
# EKVX NSCLC = tested on: EKVX NSCLC
# K-562 leukemia = tested on: K-562 leukemia
# HCC-2998 colon = tested on: HCC-2998 colon
# UO-31 renal = tested on: UO-31 renal
SMILES,GI50 (HCT-15 colon),TGI (HCT-15 colon),GI50 (COLO 205 colon),TGI (COLO 205 colon),GI50 (IGROV1 ovarian),TGI (IGROV1 ovarian),GI50 (T-47D breast),TGI (T-47D breast),GI50 (OVCAR-8 ovarian),TGI (OVCAR-8 ovarian),GI50 (SN12C renal),TGI (SN12C renal),GI50 (EKVX NSCLC),TGI (EKVX NSCLC),GI50 (K-562 leukemia),TGI (K-562 leukemia),GI50 (HCC-2998 colon),TGI (HCC-2998 colon),GI50 (UO-31 renal),TGI (UO-31 renal)
Cn1c(Cc2ccccc2)nc2cc3ccccc3cc21,26.8 µM,> 100 µM,37 µM,> 100 µM,25.5 µM,> 100 µM,44.9 µM,> 100 µM,24.6 µM,63.2 µM,18.7 µM,39.1 µM,22.2 µM,52.5 µM,37.4 µM,> 100 µM,22.8 µM,49.9 µM,25.7 µM,> 100 µM
O=C(/C=C/C12c3ccccc3C(c3ccccc31)C1C(=O)NC(=O)C12)c1ccco1 (stereo not given),2.14 µM,5.43 µM,3.27 µM,9.32 µM,3.24 µM,9.73 µM,3.43 µM,20.3 µM,3.12 µM,12.5 µM,3.21 µM,11.3 µM,3.16 µM,11 µM,2.19 µM,12.5 µM,1.79 µM,3.52 µM,2.19 µM,7.49 µM
C/C(=C\c1ccn(-c2ccc(N)cc2C(F)(F)F)n1)[C@@H]1C[C@@H]2O[C@]2(C)CCC[C@H](C)[C@H](O)[C@@H](C)C(=O)C(C)(C)[C@@H](O)CC(=O)O1,0.429 µM,> 11.1 µM,0.25 µM,0.773 µM,0.778 µM,> 11.1 µM,0.658 µM,> 11.1 µM,0.506 µM,> 11.1 µM,1.57 µM,> 11.1 µM,0.747 µM,> 11.1 µM,0.356 µM,> 11.1 µM,0.306 µM,6.23 µM,0.954 µM,> 11.1 µM
CN(C)c1ccc2[nH]c(O)c(C=Nc3ccc(S(N)(=O)=O)cc3)c2c1,> 25 µM,> 25 µM,15.6 µM,> 25 µM,> 25 µM,> 25 µM,> 25 µM,> 25 µM,> 25 µM,> 25 µM,> 25 µM,> 25 µM,> 25 µM,> 25 µM,> 25 µM,> 25 µM,> 25 µM,> 25 µM,> 25 µM,> 25 µM
COc1ccc2c(c1)C(=O)c1c-2c(N2CCN(C(=O)CN(C)C)CC2)nc2ccccc12,14.4 µM,32.3 µM,13.3 µM,28.1 µM,10 µM,26.4 µM,16.2 µM,34.1 µM,24.7 µM,> 100 µM,13 µM,27.9 µM,17.7 µM,41.5 µM,9.17 µM,> 100 µM,15.2 µM,40.5 µM,10.4 µM,26 µM
CN1CCN(Cc2ccc(NC(=O)c3[nH]ncc3Nc3ccnc4ccsc34)cc2)CC1,3.25 µM,16.1 µM,1.42 µM,8.32 µM,2.82 µM,16.7 µM,4.95 µM,50.6 µM,3.63 µM,16.4 µM,2.78 µM,14.4 µM,2.74 µM,9.81 µM,2.47 µM,> 100 µM,2.75 µM,10.1 µM,1.78 µM,10.1 µM
CCSc1nc(=S)[nH]c2[nH]ncc12,> 100 µM,> 100 µM,38.1 µM,> 100 µM,70.3 µM,> 100 µM,86.1 µM,> 100 µM,> 100 µM,> 100 µM,> 100 µM,> 100 µM,54.1 µM,> 100 µM,> 100 µM,> 100 µM,59.1 µM,> 100 µM,75.2 µM,> 100 µM
C[C@]12CC[C@H]3[C@@H](CC=C4C[C@@H](O)CC[C@@]43C)[C@@H]1C/C(=C\c1cccc(OCCCn3ccnc3)c1)[C@@H]2O,10.2 µM,38.9 µM,8.33 µM,27 µM,16.8 µM,33.6 µM,6.4 µM,30.1 µM,14.4 µM,43.1 µM,15.8 µM,38 µM,13.5 µM,33.9 µM,3.38 µM,> 58.4 µM,17.8 µM,34.1 µM,13 µM,28.3 µM
CCCN1C(=O)/C(=C/c2ccc(O)cc2)SC1=Nc1ccccc1,16.9 µM,37.5 µM,22.7 µM,51.3 µM,38 µM,> 100 µM,22.5 µM,50.8 µM,25.8 µM,68.8 µM,18.4 µM,35.5 µM,14.5 µM,32.1 µM,92.1 µM,> 100 µM,22.9 µM,47.4 µM,38.3 µM,> 100 µM
